Test results reported in US20070027195A1, “Novel compositions comprising higher primary alcohols and nicottinic acid and process of preparation thereof” (PANACEA BIOTEC LTD., priority 2004, published 2007).
Marks after values point to notes of the source that are not given here.

Test system: mice fed with hypercholesterolemic diet
Assay: Cholesterol diet-induced hypercholesterolemia in mice (serum lipid profile)
Format: in vivo, Swiss mice
Conditions: for HDL-C / LDL-C / Total cholesterol / Triglycerides / VLDL-C: hypercholesterolemic diet, fasting serum, mean ± S.E.M.
Protocol: In the present invention, the observed unexpected synergistic lipid lowering effect of combination of Extract-A and nicotinic acid is evidenced by the test conducted in mice. Swiss mice of either sex were procured from Central Animal House facility; Panacea Biotec Ltd., India. Animals weighing 20-25 g at the time of testing were used throughout. All animals were dosed sequentially by the oral route with Extract-A and/or nicotinic acid suspended in 0.5% of carboxy methyl cellulose (CMC). A dosing volume of 10 ml/kg was used for each sequential suspension.
The fasting serum lipid profile (TC, TGs, LDL-C, HDL-C, and VLDL) was estimated before initiation of the experiment. Total study duration was of 8 weeks. Hypercholesterolemia was induced by feeding standard chow mixed with 1% cholesterol and 0.2% cholic acid to mice (Kaur and Kulkarni, 2000). Control animals received standard mice chow for 8 weeks whereas cholesterolemic control animals received hypercholesterolemic diet for 8 weeks. The presence of hyperlipidemia in mice was confirmed by estimating serum lipid parameters after 4 weeks. Thereafter, various doses of Extract-A and/or nicotinic acid were administered for another 4 weeks during which animals were fed with high cholesterol diet. Blood samples were collected from fasted mice and analyzed for any alteration in serum lipid profile after 4 weeks of test compound(s) administration.
All the data were expressed as mean ±S.E.M. (Standard Error of Mean). Student t-test was used to compare the lipid parameters between animals fed with standard and hypercholesterolemic diet. The difference between various drug treated groups was analyzed by ANOVA followed by Dunnett's test. A value of P<0.05 was considered as statistically significant.

In the case of `O=C(O)c1cccnc1` [Nicotinic acid], the HDL-C (10 mg/kg p.o. for 4 weeks) is reported as 45.82 ± 4.9^a mg/dl, the LDL-C (10 mg/kg p.o. for 4 weeks) is reported as 65.5 ± 7.01^a mg/dl and the Total cholesterol (10 mg/kg p.o. for 4 weeks) is reported as 118.0 ± 4.3^a mg/dl. The Triglycerides (10 mg/kg p.o. for 4 weeks) was 33.3 ± 2.6^a mg/dl, the VLDL-C (10 mg/kg p.o. for 4 weeks) was 20 ± 0.52^a mg/dl and the HDL-C (20 mg/kg p.o. for 4 weeks) was 42.16 ± 3.19^a mg/dl. For the same compound, the LDL-C (20 mg/kg p.o. for 4 weeks) was 61.2 ± 2.14^a mg/dl, the Total cholesterol (20 mg/kg p.o. for 4 weeks) was 109.5 ± 1.60^a mg/dl and the Triglycerides (20 mg/kg p.o. for 4 weeks) was 30.66 ± 1.58^a mg/dl. For the same compound, the VLDL-C (20 mg/kg p.o. for 4 weeks) was 6.13 ± 0.31^a mg/dl, the HDL-C (40 mg/kg p.o. for 4 weeks) was 51.33 ± 2.04^a mg/dl and the LDL-C (40 mg/kg p.o. for 4 weeks) was 44.53 ± 2.17^a mg/dl. The Total cholesterol (40 mg/kg p.o. for 4 weeks) was 101.6 ± 2.59^a mg/dl, the Triglycerides (40 mg/kg p.o. for 4 weeks) was 29.0 ± 1.46^a mg/dl and the VLDL-C (40 mg/kg p.o. for 4 weeks) was 5.8 ± 0.29^a mg/dl. For the same compound, the “Effect on serum lipid parameters in comparison to hypercholesterolemic control (in words)” value (10-40 mg/kg, p.o., dose dependently) was “reversed all the serum lipid parameters”.
